From ChEMBL document CHEMBL3046479, “Preparation and antimicrobial activity evaluation of some new bi- and triheterocyclic azoles” (2013)
Converted amounts (≈) assume the structure as drawn. The source made the active and inactive calls. No cut-off for these calls is given here.

Legend:
Format in all cases: functional
Staphylococcus aureus = test: Antimicrobial activity against Staphylococcus aureus ATCC 25923 assessed as growth inhibition after 18-24 hr by broth double microdilution method
Pseudomonas aeruginosa = test: Antimicrobial activity against Pseudomonas aeruginosa ATCC 10145 assessed as growth inhibition after 18-24 hr by broth double microdilution method
[1] = test system: Yersinia pseudotuberculosis; test: Antimicrobial activity against Yersinia pseudotuberculosis ATCC 911 assessed as growth inhibition after 18-24 hr by broth double microdilution method
Saccharomyces cerevisiae = test: Antimicrobial activity against Saccharomyces cerevisiae RSKK 251 assessed as growth inhibition after 18-24 hr by broth double microdilution method
Listeria monocytogenes = test: Antimicrobial activity against Listeria monocytogenes ATCC 43251 assessed as growth inhibition after 18-24 hr by broth double microdilution method
Enterococcus faecalis = test: Antimicrobial activity against Enterococcus faecalis ATCC 29212 assessed as growth inhibition after 18-24 hr by broth double microdilution method
Candida albicans = test: Antimicrobial activity against Candida albicans ATCC 60193 assessed as growth inhibition after 18-24 hr by broth double microdilution method
[2] = test system: Mycolicibacterium smegmatis; test: Antimicrobial activity against Mycobacterium smegmatis ATCC 607 assessed as growth inhibition after 48-72 hr by broth double microdilution method
Escherichia coli = test: Antimicrobial activity against Escherichia coli ATCC 35218 assessed as growth inhibition after 18-24 hr by broth double microdilution method
Bacillus cereus = test: Antimicrobial activity against Bacillus cereus 709 Roma assessed as growth inhibition after 18-24 hr by broth double microdilution method

Structure (SMILES) | MIC (Staphylococcus aureus) | MIC (Pseudomonas aeruginosa) | MIC [1] | MIC (Saccharomyces cerevisiae) | MIC (Listeria monocytogenes) | MIC (Enterococcus faecalis) | MIC (Candida albicans) | MIC [2] | MIC (Escherichia coli) | MIC (Bacillus cereus)
Cc1nn(CNC2C(=O)N3C2SC(C)(C)C3C(=O)O)c(=O)n1CCCn1ccnc1 (stereo not given) | 62.5 µg/mL (≈ 144 µM) | 125 µg/mL (≈ 287 µM) | 125 µg/mL (≈ 287 µM) | inactive | inactive | inactive | inactive | 31.3 µg/mL (≈ 71.9 µM) | inactive | 125 µg/mL (≈ 287 µM)
Cc1nn(CN2CCOCC2)c(=O)n1CCCn1ccnc1 | 0.48 µg/mL (≈ 1.57 µM) | 0.48 µg/mL (≈ 1.57 µM) | 0.48 µg/mL (≈ 1.57 µM) | 7.81 µg/mL (≈ 25.5 µM) | 0.24 µg/mL (≈ 0.783 µM) | 0.97 µg/mL (≈ 3.17 µM) | 31.2 µg/mL (≈ 102 µM) | 15.6 µg/mL (≈ 50.9 µM) | 0.97 µg/mL (≈ 3.17 µM) | 0.24 µg/mL (≈ 0.783 µM)
Cc1nn(CC(=O)NNC(=S)Nc2ccccc2)c(=O)n1/N=C/c1ccncc1 | inactive | inactive | inactive | inactive | inactive | inactive | inactive | inactive | inactive | inactive
Cc1nn(Cc2nnc(S)n2-c2ccccc2)c(=O)n1CCCn1ccnc1 | inactive | inactive | inactive | 500 µg/mL (≈ 1260 µM) | inactive | inactive | 500 µg/mL (≈ 1260 µM) | 125 µg/mL (≈ 315 µM) | inactive | inactive
